Tests used:
[1] = molecular target: T1, Human Glucocorticoid Receptor (Homo sapiens, UniProt P04150); experiment: functional in vitro glucocorticoid assay, sPAP reporter under MMTV LTR in transfected Hela cells; format: cell-based; conditions: sPAP transcription in transfected Hela cells, 72 hours incubation
T1 construct: endogenous in cells; host or cells: HeLa cells (stably transfected with the sPAP reporter under the MMTV LTR)
T1 sequence (P04150 1-777): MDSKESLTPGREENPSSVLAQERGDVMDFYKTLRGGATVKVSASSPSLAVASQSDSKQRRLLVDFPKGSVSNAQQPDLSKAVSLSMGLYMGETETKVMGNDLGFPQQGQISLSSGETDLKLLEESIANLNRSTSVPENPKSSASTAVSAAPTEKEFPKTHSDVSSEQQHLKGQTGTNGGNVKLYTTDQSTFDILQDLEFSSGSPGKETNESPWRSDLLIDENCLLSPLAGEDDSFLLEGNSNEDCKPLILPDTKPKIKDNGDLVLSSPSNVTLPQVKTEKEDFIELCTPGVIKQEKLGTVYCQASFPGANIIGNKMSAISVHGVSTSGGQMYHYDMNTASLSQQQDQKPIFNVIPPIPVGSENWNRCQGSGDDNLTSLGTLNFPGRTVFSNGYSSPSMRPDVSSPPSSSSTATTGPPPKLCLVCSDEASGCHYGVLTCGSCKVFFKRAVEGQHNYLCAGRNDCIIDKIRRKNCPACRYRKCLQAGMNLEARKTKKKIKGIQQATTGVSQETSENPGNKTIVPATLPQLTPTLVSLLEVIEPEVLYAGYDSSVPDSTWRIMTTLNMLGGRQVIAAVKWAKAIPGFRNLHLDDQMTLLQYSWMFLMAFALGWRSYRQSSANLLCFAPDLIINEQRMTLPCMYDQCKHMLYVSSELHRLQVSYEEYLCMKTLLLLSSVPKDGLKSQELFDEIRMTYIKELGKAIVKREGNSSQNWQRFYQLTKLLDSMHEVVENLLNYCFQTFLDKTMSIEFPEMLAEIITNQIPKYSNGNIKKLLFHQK
From the text: The functional assay used was a modification of the method described by T. S Berger et al, of J. of Steroid Biochem. Molec. Biol. 1992, 41 (3-8), 733-738, "Interaction of Glucocorticoid analogues with the Human Glucocorticoid Receptor".
Thus, Hela cells were stably transfected with a detectable reporter gene (secreted placental alkaline phosphatase, sPAP) under the control of a glucocorticoid response promoter (the LTR of the mouse mammary tumour virus, MMTV).
Various concentrations of standard (dexamethasone) or compounds of the invention were incubated with transfected Hela cells for 72 hours. At the end of the incubation, substrate ([…]) for sPAP was added and the product measured by a spectrophotometric method. Increased absorbance reflected increased sPAP transcription and concentration-response lines were constructed such that EC50 -values could be estimated.

rat ear oedema = experiment: Anti-inflammatory activity: inhibition of rat ear oedema (croton oil); format: in vivo; conditions: topical to ear with 5% croton oil in acetone, male rats, 6 hours
Description: (i) Anti-inflammatory Activity--Inhibition of rat ear oedema
The test compounds are dissolved in acetone and 40 ul containing 5% croton oil is applied to the inner surface of each of the ears of 60-80 g male rats. Animals are killed 6 hours later and the ears are removed. Standard size (0.5 cm diameter) discs are punched out and the discs weighed. Mean weight of the ear discs is calculated and from this percentage inhibition of ear inflammation in relation to croton oil alone treated ears are calculated.

[2] = Hydrolysis in Blood (stability in human plasma); format: in vitro ADME

For `CCC(=O)O[C@]1(C(=O)SC2CCOC2=O)[C@@H](C)C[C@H]2[C@@H]3CCC4=CC(=O)C=C[C@]4(C)[C@@]3(F)[C@@H](O)C[C@@]21C` (single isomer, unassigned) [Example 7, 9α-Fluoro-11β-hydroxy-16β-methyl-3-oxo-17α-propionyloxy-androsta-1,4-diene-17β-carbothioic acid S-(2-oxo-tetrahydro-furan-3-yl) ester], the EC50 [1] was less than 400 nM.
Molecule `CC1(C)O[C@@H]2C[C@H]3[C@@H]4C[C@H](F)C5=CC(=O)C=C[C@]5(C)[C@@]4(F)[C@@H](O)C[C@]3(C)[C@]2(C(=O)SC2CCOC2=O)O1` (single isomer, unassigned) [Example 12, 6α,9α-Difluoro-11β-hydroxy-16α,17α-isopropylidenedioxy-3-oxoandrosta-1,4-diene-17β-carbothioic acid S-(2-oxo-tetrahydro-furan-3-yl) ester] has an EC50 [1] of less than 400 nM.
In the case of `CC1(C)O[C@@H]2C[C@H]3[C@@H]4C[C@H](F)C5=CC(=O)C=C[C@]5(C)[C@@]4(F)[C@@H](O)C[C@]3(C)[C@]2(C(=O)N[C@@H]2CCOC2=O)O1` (single isomer, unassigned) [Example 16 Isomer B, 6α,9α-Difluoro-11β-hydroxy-16α,17α-isopropylidenedioxy-3-oxo-androsta-1,4-diene-17β-carboxylic acid N-(2-oxo-tetrahydro-furan-3-yl) amide], the “% Inhibition (ear inflammation)” value (rat ear oedema; dose 10 μg) is reported as 42%.
For `CCC[C@@H]1O[C@@H]2C[C@H]3[C@@H]4C[C@H](F)C5=CC(=O)CC[C@]5(C)[C@@]4(F)[C@@H](O)C[C@]3(C)[C@]2(C(=O)SC2CCOC2=O)O1` (single isomer, unassigned) [Example 19 Isomer A, 16α,17α-(R-Butylidenedioxy)-6α,9α-difluoro-11β-hydroxy-3-oxo-androst-4-ene-17β-carbothioic acid S-(2-oxo-tetrahydro-furan-3-yl) ester], the “% Inhibition (ear inflammation)” value (rat ear oedema; dose 100 μg) was 54%.
In the case of `CCC[C@@H]1O[C@@H]2C[C@H]3[C@@H]4C[C@H](F)C5=CC(=O)CC[C@]5(C)[C@@]4(F)[C@@H](O)C[C@]3(C)[C@]2(C(=O)SC2CCOC2=O)O1` (single isomer, unassigned) [Example 19 Isomer B, 16α,17α-(R-Butylidenedioxy)-6α,9α-difluoro-11β-hydroxy-3-oxo-androst-4-ene-17β-carbothioic acid S-(2-oxo-tetrahydro-furan-3-yl) ester], the “% Inhibition (ear inflammation)” value (rat ear oedema; dose 100 μg) is reported as 43%.
`CCC[C@@H]1O[C@@H]2C[C@H]3[C@@H]4C[C@H](F)C5=CC(=O)CC[C@]5(C)[C@@]4(F)[C@@H](O)C[C@]3(C)[C@]2(C(=O)SC2CCOC2=O)O1` (single isomer, unassigned) [Example 19, 16α,17α-(R-Butylidenedioxy)-6α,9α-difluoro-11β-hydroxy-3-oxo-androst-4-ene-17β-carbothioic acid S-(2-oxo-tetrahydro-furan-3-yl) ester] gave an EC50 [1] of less than 400 nM.
`CCC[C@@H]1O[C@@H]2C[C@H]3[C@@H]4C[C@H](F)C5=CC(=O)CC[C@]5(C)[C@@]4(F)[C@@H](O)C[C@]3(C)[C@]2(C(=O)NC2CCOC2=O)O1` (single isomer, unassigned) [Example 22, 16α,17α-(R-Butylidenedioxy)-6α,9α-difluoro-11β-hydroxy-3-oxo-androst-4-ene-17β-carboxylic acid N-(2-oxo-tetrahydro-furan-3-yl) amide] gave an EC50 [1] of less than 400 nM and a half-life [2] of less than 3 h.
In the case of `CCC(=O)O[C@]1(C(=O)SC2CCOC2=O)[C@H](C)C[C@H]2[C@@H]3C[C@H](F)C4=CC(=O)C=C[C@]4(C)[C@@]3(F)[C@@H](O)C[C@@]21C` (stereo partly drawn) [Example 1, 6α,9α-Difluoro-11β-hydroxy-16α-methyl-3-oxo-17α-propionyloxy-androsta-1,4-diene-17β-carbothioic acid S-(2-oxo-tetrahydro-furan-3-yl) ester], the EC50 [1] is reported as less than 400 nM.
`CCC(=O)O[C@]1(C(=O)SC2CCOC2=O)[C@H](C)C[C@H]2[C@@H]3C[C@H](F)C4=CC(=O)CC[C@]4(C)[C@@]3(F)[C@@H](O)C[C@@]21C` (stereo partly drawn) [Example 4] gave an EC50 [1] of less than 400 nM.
With `CCCC(=O)O[C@]1(C(=O)SC2CCOC2=O)[C@H](C)C[C@H]2[C@@H]3C[C@H](F)C4=CC(=O)C=C[C@]4(C)[C@@]3(F)[C@@H](O)C[C@@]21C` (stereo partly drawn) [Example 5, 17α-Butyryloxy-6α,9α-difluoro-11β-hydroxy-16α-methyl-3-oxo-androsta-1,4-diene-17β-carbothioic acid S-(2-oxo-tetrahydro-furan-3-yl) ester] the EC50 [1] was less than 400 nM.
For `CC(=O)O[C@]1(C(=O)SC2CCOC2=O)[C@H](C)C[C@H]2[C@@H]3C[C@H](F)C4=CC(=O)C=C[C@]4(C)[C@@]3(F)[C@@H](O)C[C@@]21C` (stereo partly drawn) [Example 6, 17α-Acetyloxy-α,9α-difluoro-11β-hydroxy-16α-methyl-3-oxo-androsta-1,4-diene-17β-carbothioic acid S-(2-oxo-tetrahydro-furan-3-yl) ester], the EC50 [1] was less than 400 nM.
With `CCC(=O)O[C@]1(C(=O)SC2CCC(=O)O2)[C@H](C)C[C@H]2[C@@H]3C[C@H](F)C4=CC(=O)C=C[C@]4(C)[C@@]3(F)[C@@H](O)C[C@@]21C` (stereo partly drawn) [Example 8, 6α,9α-Difluoro-11β-hydroxy-16α-methyl-3-oxo-17α-propionyloxy-androsta-1,4-diene-11β-carbothioic acid S-(5-oxo-tetrahydro-furan-2-yl) ester] the EC50 [1] was less than 400 nM.
`CCC(=O)O[C@]1(C(=O)SC2COC(=O)C2)[C@H](C)C[C@H]2[C@@H]3C[C@H](F)C4=CC(=O)C=C[C@]4(C)[C@@]3(F)[C@@H](O)C[C@@]21C` (stereo partly drawn) [Example 9, 6α,9α-Difluoro-11α-hydroxy-16α-methyl-3-oxo-17α-propionyloxy-androsta-1,4-diene-17β-carbothioic acid S-(2-oxo-tetrahydro-furan-4-yl) ester] showed an EC50 [1] of less than 400 nM.
`CC1(C)O[C@@H]2C[C@H]3[C@@H]4C[C@H](F)C5=CC(=O)C=C[C@]5(C)[C@@]4(F)[C@@H](O)C[C@]3(C)[C@]2(C(=O)N[C@H]2CCOC2=O)O1` [Example 15, 6α,9α-Difluoro-11β-hydroxy-16α,17α-isopropylidenedioxy-3-oxo-androsta-1,4-diene-17β-carboxylic acid N-(2-oxo-tetrahydro-furan-3S-yl) amide] gave an EC50 [1] of less than 400 nM and a half-life [2] of less than 3 h.
`CC1(C)O[C@@H]2C[C@H]3[C@@H]4C[C@H](F)C5=CC(=O)C=C[C@]5(C)[C@@]4(F)[C@@H](O)C[C@]3(C)[C@]2(C(=O)NC2CCOC2=O)O1` (stereo partly drawn) [Example 16, 6α,9α-Difluoro-11β-hydroxy-16α,17α-isopropylidenedioxy-3-oxo-androsta-1,4-diene-17β-carboxylic acid N-(2-oxo-tetrahydro-furan-3-yl) amide] gave an EC50 [1] of less than 400 nM and a half-life [2] of less than 3 h.
With `CC1(C)O[C@@H]2C[C@H]3[C@@H]4C[C@H](F)C5=CC(=O)C=C[C@]5(C)[C@@]4(F)[C@@H](O)C[C@]3(C)[C@]2(C(=O)N[C@@H]2COC(=O)C2)O1` [Example 23, 6α,9α-Difluoro-11β-hydroxy-16α,17α-isopropylidenedioxy-3-oxo-androsta-1,4-diene-17β-carboxylic acid N-(2-oxo-tetrahydro-furan-4S-yl) amide] the EC50 [1] was less than 400 nM and the half-life [2] was less than 3 h.
With `CC1(C)O[C@@H]2C[C@H]3[C@@H]4C[C@H](F)C5=CC(=O)C=C[C@]5(C)[C@@]4(F)[C@@H](O)C[C@]3(C)[C@]2(C(=O)N[C@H]2COC(=O)C2)O1` [Example 24, 6α,9α-Difluoro-11β-hydroxy-16α,17α-isopropylidenedioxy-3-oxo-androsta-1,4-diene-17β-carboxylic acid N-(2-oxo-tetrahydro-furan-4R-yl) amide] the EC50 [1] was less than 400 nM.

Reference: patent publication US6197761A, “17β-2-oxo-tetrahydrofuranyl)-carbothioic acid ester, -carboxylic acid ester and -carboxylic acid amide androstane derivatives” (Glaxo Wellcome Inc., priority 1995, dated 2001)
